Conditions: Liquid; for viscosity: Capillary tube (Ostwald / Ubbelohde) method; for mass density: Vibrating tube method

CCCCCCCO [heptan-1-ol]
Conditions | mass density [kg/m3] | viscosity [mPa·s]
298.15 K, 2000 kPa | 820.2 | 5.971
298.15 K, 4020 kPa | 821.4 | 6.1
298.15 K, 6010 kPa | 822.8 | 6.229
298.15 K, 8000 kPa | 824 | 6.364
298.15 K, 10000 kPa | 825.3 | 6.484
298.15 K, 13000 kPa | 827.1 | 6.686
298.15 K, 16000 kPa | 828.9 | 6.881
298.15 K, 19000 kPa | 830.7 | 7.084
298.15 K, 22000 kPa | 832.5 | 7.293
298.15 K, 25000 kPa | 834.2 | 7.516
298.15 K, 28000 kPa | 835.9 | 7.72
298.15 K, 29990 kPa | 836.9 | 7.864
303.16 K, 2030 kPa | 816.5 | 5.186
303.16 K, 4030 kPa | 817.9 | 5.302
303.16 K, 6040 kPa | 819.3 | 5.42
303.16 K, 7980 kPa | 820.5 | 5.534
303.16 K, 9990 kPa | 821.8 | 5.651
303.16 K, 12990 kPa | 823.6 | 5.826
303.16 K, 16020 kPa | 825.5 | 6.004
303.16 K, 19020 kPa | 827.3 | 6.179
303.16 K, 22000 kPa | 829.2 | 6.353
303.16 K, 24980 kPa | 830.9 | 6.527
303.16 K, 27980 kPa | 832.5 | 6.703
303.16 K, 30010 kPa | 833.7 | 6.822
313.15 K, 2000 kPa | 809.2 | 3.763
313.15 K, 4000 kPa | 810.6 | 3.848
313.15 K, 5980 kPa | 811.9 | 3.932
313.15 K, 7980 kPa | 813.3 | 4.017
313.15 K, 9970 kPa | 814.6 | 4.101
313.15 K, 13030 kPa | 816.5 | 4.231
313.15 K, 16020 kPa | 818.4 | 4.358
313.15 K, 19000 kPa | 820.4 | 4.484
313.15 K, 22020 kPa | 822.2 | 4.613
313.15 K, 25010 kPa | 824 | 4.739
313.15 K, 27980 kPa | 825.7 | 4.865
313.15 K, 30010 kPa | 826.9 | 4.952
323.15 K, 1990 kPa | 802.1 | 2.748
323.15 K, 4010 kPa | 803.4 | 2.812
323.15 K, 5990 kPa | 804.8 | 2.876
323.15 K, 8010 kPa | 806.2 | 2.94
323.15 K, 10010 kPa | 807.6 | 2.997
323.15 K, 13000 kPa | 809.7 | 3.088
323.15 K, 16000 kPa | 811.8 | 3.179
323.15 K, 18990 kPa | 813.7 | 3.266
323.15 K, 22000 kPa | 815.6 | 3.358
323.15 K, 25000 kPa | 817.4 | 3.451
323.15 K, 28000 kPa | 819.3 | 3.542
323.15 K, 30000 kPa | 820.5 | 3.607

CCCCCCCCCO [nonan-1-ol]
Conditions | mass density [kg/m3] | viscosity [mPa·s]
298.15 K, 1990 kPa | 825.5 | 9.285
298.15 K, 3990 kPa | 826.7 | 9.511
298.15 K, 6000 kPa | 828 | 9.746
298.15 K, 8010 kPa | 829.2 | 9.958
298.15 K, 10010 kPa | 830.5 | 10.17
298.15 K, 13000 kPa | 832.2 | 10.51
298.15 K, 16000 kPa | 833.9 | 10.85
298.15 K, 19010 kPa | 835.5 | 11.2
298.15 K, 21990 kPa | 837.1 | 11.56
298.15 K, 25000 kPa | 838.7 | 11.93
298.15 K, 28020 kPa | 840.2 | 12.28
298.15 K, 30020 kPa | 841.1 | 12.51
303.14 K, 27980 kPa | 836.9 | 11.13
303.15 K, 2010 kPa | 822 | 8.424
303.15 K, 4010 kPa | 823.2 | 8.633
303.15 K, 6020 kPa | 824.5 | 8.843
303.15 K, 8030 kPa | 825.7 | 9.053
303.15 K, 9990 kPa | 826.9 | 9.257
303.15 K, 12980 kPa | 828.7 | 9.568
303.15 K, 15970 kPa | 830.4 | 9.88
303.15 K, 19020 kPa | 832.1 | 10.2
303.15 K, 22010 kPa | 833.8 | 10.51
303.15 K, 25000 kPa | 835.4 | 10.82
303.15 K, 30000 kPa | 837.9 | 11.34
313.15 K, 2000 kPa | 814.9 | 6.381
313.15 K, 3970 kPa | 816.3 | 6.536
313.15 K, 6020 kPa | 817.6 | 6.699
313.15 K, 7990 kPa | 818.9 | 6.854
313.15 K, 10020 kPa | 820.2 | 7.015
313.15 K, 13000 kPa | 822 | 7.25
313.15 K, 16000 kPa | 823.8 | 7.487
313.15 K, 18980 kPa | 825.6 | 7.723
313.15 K, 22000 kPa | 827.3 | 7.961
313.15 K, 25000 kPa | 829 | 8.198
313.15 K, 28010 kPa | 830.6 | 8.436
313.15 K, 29990 kPa | 831.7 | 8.592
323.15 K, 2010 kPa | 808.3 | 4.745
323.15 K, 4020 kPa | 809.7 | 4.859
323.15 K, 6020 kPa | 811 | 4.976
323.15 K, 8010 kPa | 812.3 | 5.09
323.15 K, 10010 kPa | 813.7 | 5.202
323.15 K, 13010 kPa | 815.7 | 5.376
323.15 K, 16010 kPa | 817.5 | 5.539
323.15 K, 19000 kPa | 819.3 | 5.716
323.15 K, 22010 kPa | 821.1 | 5.892
323.15 K, 25000 kPa | 822.9 | 6.07
323.15 K, 28000 kPa | 824.6 | 6.247
323.15 K, 30000 kPa | 825.7 | 6.373

From the NIST ThermoML archive (doi:10.1021/acs.jced.8b00812)
